What all share (type): cell-based
Test [1] deals with SW620. The experiment in a line: Antiproliferative activity in human tumor cell lines (SW620). To be noted: SW-620, SW620 colon tumor cell line. As to the method: (§1) PROTOCOLS 1, 2, and 3 are described in greater detail hereinbelow. In general, according to PROTOCOLS 1 and 2, the target ABAE and/or Human Tumor cells are exposed to the compound of Formula I for 48 hours. PROTOCOL 3 exposes ABAE cells to the compounds for 4 days. A detailed description of the protocol is as follows:
(§2) The antiproliferative activity of the compounds of Formula I of the present invention is evaluated in a panel comprised of human tumor cell lines and an adult bovine aortic endothelial cell line (ABAE). The human tumor cell lines are from
(§3) All cell lines are maintained in log phase in RPMI 1640 media, supplemented with 5% fetal calf serum, penicillin/streptomycin and 2 mM L-glutamine. Cultures are renewed after 20 passages with cells from a fresh stock of batch-frozen early passage cells. Cell lines are routinely checked for mycoplasma contamination (Genprobe). In a laminar flow hood, cells (1-5×10^4) are plated into 96-well microtiter plates in a volume of 0.1 ml/well with a bulk microtiter dispenser (Denley). […] At this concentration, dimethylsulfoxide has no effect on cell growth. Compounds are added using a Tomtec dispenser which simultaneously dispenses from one 96-well plate, containing the drug dilutions, to the plates containing the cells. After two days of continuous drug exposure, 50% cold trichloroacetic acid (TCA) is added to 10% final concentration to fix the cells, and after 60 minutes at 4° C., the TCA is aspirated and the plates are washed 5 times with deionized water using a microtiter plate washer. The number of cells on the plate are quantitated using a protein dye-binding assay (Monks et al., 1991). A 0.4% solution of the dye, sulforhodamine B, in glacial acetic acid is added to the plates, and the plates are washed 5 times with 1% glacial acetic acid using the automatic plate washed. The bound stain is solubilized with 0.1 ml of 10 mM Tris base. The optical densities are read from an automatic spectrophotometric plate reader (Dynatech) directly to a main frame computer (VAX 8600).
(§4) Positive controls, that include standard chemotherapeutic drugs (i.e., adriamycin, cisplatin, etc.), are included in every experiment.
(§5) Background optical density measurements (complete media-cells, and complete media+drug-cells) are automatically subtracted from the appropriate control and test wells. Mean values and standard errors are determined from duplicate wells. A measure is also made of the optical density at time when the drugs are added. The number of cells after treatment (P), as % of control, is calculated for every concentration of drug, as follows: [formula] wherein: T is optical density measurement for treated cells after 48 hours;
(§6) C is optical density measurement for untreated cells after 48 hours;
(§7) Co is optical density measurement for cells at the time of drug addition.
(§8) IC50 of growth inhibition is calculated from the sets of P values using the RS-1 data package (BBN Software).
(§9) Antiproliferative Activity in Human Tumor Cell Lines
(§10) The antiproliferative activity of the compounds of Formula I is evaluated in the panel comprised of human tumor cell lines as listed in PROTOCOL 1. This assay is a slight modification of PROTOCOL 1. The modifications include:
(§11) 1) each concentration for each compound is tested in a single well;
(§12) 2) compounds are tested at 20, 4, 0.8, 0.16 microgram/ml and additionally in some experiments at 100 and 0.32 microgram/ml;
(§13) 3) samples are pipetted into a 96-well plate for each of the cell lines by a Beckman Biomek 1000 SL robot;
(§14) 4) after fixing with TCA each well is washed with 0.35 ml distilled water twice, not five times;
5) after staining with sulforhodamine B each well is washed 3 times, not five times;
6) the growth inhibition (I) as % of control, is calculated using the RS-1 data package (BBN Software), for every concentration of drug, as follows: [formula] wherein: T is optical density measurement for treated cells after 48 hours; […]

For test [2], the system named is Human Tumor cell lines. As to the kind of experiment: Antiproliferative activity in panel of human tumor cell lines (PROTOCOL 1 and PROTOCOL 2). The conditions noted are these: Homo sapiens; average over the tumor cell lines of Table 3. As for the experimental part: The antiproliferative activity of the compounds of Formula I in an Adult Bovine Aortic Endothelial (ABAE) cell line and in Human Tumor cells lines is evaluated in three similar assays that measure growth inhibition. The assays are identified as follows:
as §1, §2, §3, §4, §5, §6, §7, §8, §9, §10, §11, §12, §13, §14
5) after staining with sulforhodamine B each well is washed 3 times, not five times; […]

The test system of test [3] is Adult Bovine Aortic Endothelial (ABAE) cell line. The experiment in a line: Antiproliferative activity in Adult Bovine Aortic Endothelial (ABAE) cell line, PROTOCOL 1. The conditions noted are these: Bos taurus; ABAE cells, 48 hours exposure. As to the method: The antiproliferative activity of the compounds of Formula I in an Adult Bovine Aortic Endothelial (ABAE) cell line and in Human Tumor cells lines is evaluated in three similar assays that measure growth inhibition. The assays are identified as follows: PROTOCOLS 1, 2, and 3 are described in greater detail hereinbelow. In general, according to PROTOCOLS 1 and 2, the target ABAE and/or Human Tumor cells are exposed to the compound of Formula I for 48 hours. PROTOCOL 3 exposes ABAE cells to the compounds for 4 days. A detailed description of the protocol is as follows: The antiproliferative activity of the compounds of Formula I of the present invention is evaluated in a panel comprised of human tumor cell lines and an adult bovine aortic endothelial cell line (ABAE). The human tumor cell lines are from All cell lines are maintained in log phase in RPMI 1640 media, supplemented with 5% fetal calf serum, penicillin/streptomycin and 2 mM L-glutamine. Cultures are renewed after 20 passages with cells from a fresh stock of batch-frozen early passage cells. Cell lines are routinely checked for mycoplasma contamination (Genprobe). […] The number of cells on the plate are quantitated using a protein dye-binding assay (Monks et al., 1991). […] The optical densities are read from an automatic spectrophotometric plate reader (Dynatech) directly to a main frame computer (VAX 8600). […] Mean values and standard errors are determined from duplicate wells. […] The number of cells after treatment (P), as % of control, is calculated for every concentration of drug, as follows: [formula] wherein: T is optical density measurement for treated cells after 48 hours; C is optical density measurement for untreated cells after 48 hours; Co is optical density measurement for cells at the time of drug addition. IC50 of growth inhibition is calculated from the sets of P values using the RS-1 data package (BBN Software). Table 2 presents the results depicting the antiproliferative activity of the compounds of Formula I against an adult bovine aortic endothelial cell line (ABAE), as evaluated by PROTOCOL 1 and PROTOCOL 3. […]

Structures can show the parent of a compound that is named as a salt.

In general, IC50 refers to the concentration that gives 50% inhibition. For the molecule `CN(C)CC(=O)Nc1cc(N(C)C)c2c(c1O)C(=O)C1=C(O)[C@]3(O)C(=O)C(C(N)=O)=C(O)[C@@H](N(C)C)C3CC1C2` (stereo partly drawn) [Example 2, [4S-(4a,12aa-1-4,7-Bis(dimethylamino)-9-[[(dimethylamino)acetyl]amino]]-1,4,,4a,5,5a,6,11,12a-octahvdro-3,10,12,12a-tetrahydroxy-1,11-dioxo-2-napththacenecarboxamidedihydrochloride], the 50% inhibitory concentration (IC50) in test [1] was determined as 5.6 µg/mL; in test [2], 5.8 µg/mL; in test [3], 6.6 µg/mL.

As to `CCCCCCNCC(=O)Nc1cc(N(C)C)c2c(c1O)C(=O)C1=C(O)[C@]3(O)C(=O)C(C(N)=O)=C(O)[C@@H](N(C)C)C3CC1C2` (stereo partly drawn) [Example 4, [4S-(4α,12aα)]-4,7-Bis(dimethylamino)-9-[(hexylamino)acetyl]amino]-1,4,4a,5,5a,6,11,12a-octahydro-3,10,12,12a-tetrahydroxy-1,11-dioxo-2-naphthacenecarboxamide dihydrochloride], the IC50 is 2.7 µg/mL in test [1], 2.3 µg/mL in test [2] and 2.4 µg/mL in test [3].

As for `CCCCCCCNCC(=O)Nc1cc(N(C)C)c2c(c1O)C(=O)C1=C(O)[C@]3(O)C(=O)C(C(N)=O)=C(O)[C@@H](N(C)C)C3CC1C2` (stereo partly drawn) [Example 5, [4S-(4α,12aα)]-4,7-Bis(dimethylamino)-9-[[(heptylamino)acetyl]amino]-1,4,4a,5,5a,6,11,12a-octahydro-3,10,12,12a-tetrahydroxy-1,11-dioxo-2-naphthacenecarboxamide dihydrochloride], the 50% inhibitory concentration (IC50) is 2.4 µg/mL in test [1], 2.4 µg/mL in test [2] and 2.2 µg/mL in test [3].

(Values after patent publication US5843925A, “Methods for inhibiting angiogenesis, proliferation of endothelial or tumor cells and tumor growth” (American Cyanamid Company, priority 1994, dated 1998).)
